Experimental data: patent publication US12269803B2, “Krüppel-like factor 15 (KLF15) small molecule agonists in kidney disease” (United States Government as represented by the Department …, priority 2020, dated 2025)

Assays:
[1] = test system: KLF15; assay: KLF15 activity in ADR-treated cultured human podocytes; assay type: cell-based; conditions: nonpermissive conditions 37° C., vs DMSO
[2] = test system: KLF15 promoter mutated at the GR binding site; assay: GR-mutant KLF15 reporter assay; assay type: cell-based, human
[3] = test system: KLF15 promoter; assay: KLF15 reporter human podocyte assay (HTS, dose-response, primary screening); assay type: cell-based; conditions: for EC50: dose-response curve, human podocytes, luciferase/renilla
Procedure: A stable reporter assay directed at KLF15 promoter region (4.3 kb region) was generated in human podocytes, a fragment of human KLF15 promoter upstream of the start codon, by amplifying and subcloning it into the firefly luciferase reporter plasmid (co-transfection with renilla to serve as internal controls). KLF15 promoter activity is measured as a ratio of luciferase to renilla activity. Using this reporter cell line, a cell-based HTS assay was developed using recently reported cell-seeding methodology specific to cultured podocytes (16).

[4] = test system: IL-17R signaling
[5] = test system: human podocytes; assay: Podocyte survival (Renilla, cell viability) after LPS treatment; assay type: cell-based; conditions: LPS-treated human podocytes
Procedure: (§1) FIG. 10A-D show representative data illustrating the dose-response curve and EC50 (FIG. 10A), KLF15 reporter activity (FIG. 10B), and Renilla activity (cell viability) (FIG. 10C) in LPS-treated HP, and the therapeutic efficacy in abrogating albuminuria (biomarker of kidney disease) in LPS-treated mice (FIG. 10D).
(§2) After the synthesis of these novel analogues, a primary screening assay was conducted.

[6] = test system: human podocytes; assay: Cell viability (renilla activity, MTT assay) in ADR-treated cultured human podocytes; assay type: cell-based; conditions: vs K-9, K-15, DEX, DMSO
[7] = test system: Db/db mice on the FVB/N background; assay: db/db murine model of progressive diabetic kidney disease; assay type: in vivo; conditions: subcutaneous minipump, 0.85 μg/day for 14 days
Description: Db/db mice on the FVB/N background were utilized as a murine model of progressive diabetic kidney disease (DKD), where there is significant podocyte injury and glomerulosclerosis.

[8] = test system: KLF15 promoter; assay: KLF15 promoter activity in human podocytes, KLF15 agonist combined with dexamethasone; assay type: cell-based; conditions: K-7 combined with DEX, dose-response curves
[9] = test system: LPS-treated mice; assay: LPS-induced albuminuria murine model; assay type: in vivo; conditions: vs DMSO
Procedure: Referring to FIG. 10D, C57BL/6 mice were treated with lipopolysaccharide (LPS) at dose of 10 μg/g in two divided doses 24 hours apart intraperitoneally to induce podocyte injury and albuminuria.

[10] = test system: human podocytes; assay: KLF15 and synaptopodin expression and actin stress fibers in LPS-treated human podocytes; assay type: cell-based; conditions: LPS conditions, vs DMSO-treated podocytes
[11] = test system: KLF15 reporter; assay: KLF15 reporter activity in LPS-treated human podocytes (podocyte stress model); assay type: cell-based
Procedure: as §1, §2

Row | EC50 [3] | Compound | KLF15 activity [1] | KLF15 reporter activity with KLF15 promoter mutated at the GR binding site [2] | genes involved in IL-17R and NF-κB signaling, chemokine/inflammatory signaling and fibrosis pathways (RNA-seq enrichment) ([4]; K-7 vs DMSO in LPS-treated podocytes) | transcripts downstream of IL-17R signaling (CSF2, CSF3, CXCL2, CXCL3, CCL2, IL1β) ([4]; cultured human podocytes, LPS treatment) | podocyte survival after LPS treatment [5] | maximal KLF15 reporter activity ([3]; dose escalation, at similar concentrations to DEX) | cell viability (renilla activity and MTT assay) [6] | podocyte effacement ([7]; PAS staining and TEM) | glomerular basement membrane (GBM) thickness ([7]; quantified with ImageJ) | glomerular volume ([7]; quantified with ImageJ) | DEX dose required to induce KLF15 reporter activity [8] | albuminuria ([9]; 5 mg/kg every 12 hours, LPS-proteinuric mice) | albuminuria ([9]; C57BL/6 mice, LPS 10 μg/g, subcutaneous minipump 3.5 μg/day for 48 hours) | KLF15 expression [10] | actin stress fiber formation [10] | synaptopodin expression [10] | KLF15 reporter activity after LPS treatment [11]
1 | ~76.2 nM | Nc1ccccc1-n1nc2ccc3ccccc3c2n1 [Compound K-9] | restored KLF15 activity | induce KLF15 reporter activity independent of GR signaling |  |  |  |  |  |  |  |  |  |  |  |  |  |  | 
2 | ~10.9 nM | O=C(Nc1ccc2ccccc2c1)c1ccc(Cl)cc1Cl [Compound K-15] | restored KLF15 activity | induce KLF15 reporter activity independent of GR signaling |  |  |  |  |  |  |  |  |  |  |  |  |  |  | 

Row | Compound | EC50 [3] | KLF15 activity [1] | KLF15 reporter activity with KLF15 promoter mutated at the GR binding site [2] | genes involved in IL-17R and NF-κB signaling, chemokine/inflammatory signaling and fibrosis pathways (RNA-seq enrichment) ([4]; K-7 vs DMSO in LPS-treated podocytes) | transcripts downstream of IL-17R signaling (CSF2, CSF3, CXCL2, CXCL3, CCL2, IL1β) ([4]; cultured human podocytes, LPS treatment) | podocyte survival after LPS treatment [5] | maximal KLF15 reporter activity ([3]; dose escalation, at similar concentrations to DEX) | cell viability (renilla activity and MTT assay) [6] | podocyte effacement ([7]; PAS staining and TEM) | glomerular basement membrane (GBM) thickness ([7]; quantified with ImageJ) | glomerular volume ([7]; quantified with ImageJ) | DEX dose required to induce KLF15 reporter activity [8] | albuminuria ([9]; 5 mg/kg every 12 hours, LPS-proteinuric mice) | albuminuria ([9]; C57BL/6 mice, LPS 10 μg/g, subcutaneous minipump 3.5 μg/day for 48 hours) | KLF15 expression [10] | actin stress fiber formation [10] | synaptopodin expression [10] | KLF15 reporter activity after LPS treatment [11]
3 | CSc1ccc(NC(=O)Nc2cc(C)ccn2)cc1 [Compound K-7] | ~11.9 nM | restored KLF15 activity | induce KLF15 reporter activity independent of GR signaling | significant decrease | suppressed | improved | higher maximal KLF15 reporter activity | significantly improved | attenuated podocyte effacement | reduced | reduced glomerular volume | reduced the DEX dose required to induce KLF15 reporter activity | significant improvement in albuminuria | significantly reduced albuminuria | restored | restored | restored | improved KLF15 reporter activity
